Experiments:
[1] = molecular target: TACE enzyme (Homo sapiens (Human), UniProt P78536); conditions: WO 00/44709, page 251, table 10, example 61; cited from earlier work
[2] = molecular target: Recombinant Human catalytic domains of MMP1 (Homo sapiens (Human), UniProt P03956); test: MMP1 isolated enzyme assay, profluorescent peptidic substrate; format: biochemical; conditions: 10 minutes incubation at room temperature; read-out: MMP1 enz IC50
Description: Activity of the compounds was investigated using MMP1 isolated enzyme.

[3] = tested on: TNFα secretion from LPS stimulated frozen Peripheral Blood Mononuclear Cells (PBMC); test: inhibition of TNFα secretion from LPS stimulated human PBMC (hPBMC assay); format: cell-based; conditions: LPS 1 μg/mL, overnight incubation, TNFα by HTRF
Method: Activity of the compounds was investigated using human peripheral blood mononuclear cells (hPBMC). This assay was designed to measure the inhibition of the TNFα secretion from LPS stimulated frozen Peripheral Blood Mononuclear Cells (PBMC) isolated from human blood. TNFα levels were measured using HTRF® Human TNFα kit (Cisbio #62TNFPEC) which is a rapid and quantitative sandwich immunoassay based on TR-FRET technology.
Frozen PBMC were quickly thawed, resuspended in culture medium (RPMI 10% inactivated FBS) and viable cells were seeded in 96-well plates (50,000 cells/well). […] After overnight incubation at 37° C., 10 μL of cell supernatant were mixed with 5 μL of each tagged anti-TNFα specific antibody as recommended by the supplier. After 2 hours of incubation at room temperature, the HTRF® signals were measured using a microplate reader (wavelengths: excitation=337 nm, first emission=620 nm, second emission=665 nm).

[4] = molecular target: Recombinant Human ADAM17 catalytic domain (Homo sapiens (Human), UniProt P78536); test: TACE (ADAM17) isolated enzyme assay, profluorescent peptidic substrate; conditions: read-out: TACE enz IC50; ADAM17 catalytic domain 500 nM, 40 μM substrate, two hours
Chain of Recombinant Human ADAM17 catalytic domain (P78536 223-474): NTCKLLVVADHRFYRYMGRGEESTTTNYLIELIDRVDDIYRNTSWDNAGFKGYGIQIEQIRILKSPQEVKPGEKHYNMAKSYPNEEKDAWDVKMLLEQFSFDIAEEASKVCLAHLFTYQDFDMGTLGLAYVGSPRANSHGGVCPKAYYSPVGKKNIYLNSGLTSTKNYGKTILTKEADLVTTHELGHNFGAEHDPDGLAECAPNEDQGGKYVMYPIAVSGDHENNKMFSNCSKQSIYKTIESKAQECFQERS
Method: Activity of the compounds was investigated using TACE (ADAM17) isolated enzyme. […] Mca fluorescence was quenched by the Dpa group until cleavage by ADAM17 at the Ala-Val bond separates the two moieties.
The enzymatic reaction was performed in 384-well microplates with a final volume of 10 μL containing 1% DMSO. Recombinant Human ADAM17 catalytic domain (500 nM) was assayed with 40 μM of substrate and serial dilutions of tested inhibitors (from 10000 nM to 0.04 nM). After two hours of incubation at room temperature, the fluorescence was measured using a microplate reader (320/425 nm).
Data were normalized using the average of positive controls (enzyme with no inhibitor) and negative controls (no enzyme). IC50 were calculated using a four-parameters logistic model.

Chain of Recombinant Human catalytic domains of MMP1 (P03956 98-276): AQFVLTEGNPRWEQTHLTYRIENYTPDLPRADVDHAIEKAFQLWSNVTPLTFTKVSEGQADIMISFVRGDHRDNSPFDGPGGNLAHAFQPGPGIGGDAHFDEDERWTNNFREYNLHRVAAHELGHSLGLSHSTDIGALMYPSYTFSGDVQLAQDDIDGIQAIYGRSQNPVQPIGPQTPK
Chain of TACE enzyme (P78536 215-824): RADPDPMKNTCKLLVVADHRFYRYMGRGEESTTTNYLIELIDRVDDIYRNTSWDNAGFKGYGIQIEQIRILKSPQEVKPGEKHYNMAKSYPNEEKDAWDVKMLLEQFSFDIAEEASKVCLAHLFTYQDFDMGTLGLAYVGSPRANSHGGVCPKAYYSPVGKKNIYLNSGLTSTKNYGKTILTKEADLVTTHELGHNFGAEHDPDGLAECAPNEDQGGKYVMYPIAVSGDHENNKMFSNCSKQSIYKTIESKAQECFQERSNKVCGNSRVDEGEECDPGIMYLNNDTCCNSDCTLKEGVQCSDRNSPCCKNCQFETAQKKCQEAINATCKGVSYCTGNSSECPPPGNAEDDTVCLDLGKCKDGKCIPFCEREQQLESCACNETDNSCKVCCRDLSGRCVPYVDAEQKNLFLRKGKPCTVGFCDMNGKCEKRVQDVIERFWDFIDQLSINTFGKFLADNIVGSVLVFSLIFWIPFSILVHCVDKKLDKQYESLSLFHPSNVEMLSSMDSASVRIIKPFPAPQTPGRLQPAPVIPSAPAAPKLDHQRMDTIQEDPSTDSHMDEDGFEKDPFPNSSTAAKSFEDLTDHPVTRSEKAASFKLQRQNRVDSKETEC

Row | IC50 [2] [nM] | IC50 [4] [nM] | Structure (SMILES) | selectivity for the TACE enzyme compared with certain MMPs [1] | IC50 [3] [nM]
1 | > 10000 | 2.8 | Cc1cc(COc2ccc(S(=O)(=O)NC3(CC(=O)NO)CN(C(=O)N4CCN(C)CC4)C3)cc2)c2ccccc2n1 [Example 10, N-hydroxy-2-(1-(4-methylpiperazine-1-carbonyl)-3-((4-((2-methylquinolin-4-yl)methoxy)phenyl)sulfonamido)azetidin-3-yl)acetamide] |  | < 50
2 | > 10000 | 8.2 | Cc1cc(COc2ccc(S(=O)(=O)NC3(CC(=O)NO)CN(C(=O)CC(C)(C)C)C3)cc2)c2ccccc2n1 [Example 11, 2-(1-(3,3-dimethylbutanoyl)-3-((4-((2-methylquinolin-4-yl)methoxy)phenyl)sulfonamido)azetidin-3-yl)-N-hydroxyacetamide] |  | < 50
3 | > 10000 | 5.6 | CCN1CCN(C(=O)N2CC(CC(=O)NO)(NS(=O)(=O)c3ccc(OCc4cc(C)nc5ccccc45)cc3)C2)CC1 [Example 28b, 2-(1-(4-ethylpiperazine-1-carbonyl)-3-((4-((2-methylquinolin-4-yl)methoxy)phenyl)sulfonamido)azetidin-3-yl)-N-hydroxyacetamide] |  | < 50

Further lines, the molecule ahead of its results:

Row | Structure (SMILES) | IC50 [2] [nM] | IC50 [4] [nM] | selectivity for the TACE enzyme compared with certain MMPs [1] | IC50 [3] [nM]
4 | CC1(C)SCCN(S(=O)(=O)c2ccc(OCC#CCO)cc2)[C@H]1C(=O)NO [Apratastat] |  |  | not selective | 
5 | Cc1cc(COc2ccc(S(=O)(=O)NC3(C(=O)NO)CN(C(=O)C(C)C)C3)cc2)c2ccccc2n1 [Example 7b, N-hydroxy-1-isobutyryl-3-((4-((2-methylquinolin-4-yl)methoxy)phenyl)sulfonamido)azetidine-3-carboxamide] | > 10000 | 5.2 |  | < 50
6 | Cc1cc(COc2ccc(S(=O)(=O)NC3(CC(=O)NO)CN(C(=O)C(C)(C)N(C)C)C3)cc2)c2ccccc2n1 [Example 18, 2-(1-(2-(dimethylamino)-2-methylpropanoyl)-3-((4-((2-methylquinolin-4-yl)methoxy)phenyl)sulfonamido)azetidin-3-yl)-N-hydroxyacetamide] | > 10000 | 3.5 |  | < 50
7 | Cc1cc(COc2ccc(S(=O)(=O)NC3(C(=O)NO)CN(C(=O)CC4CCC4)C3)cc2)c2ccccc2n1 [Example 26f, 1-(2-cyclobutylacetyl)-N-hydroxy-3-((4-((2-methylquinolin-4-yl)methoxy)phenyl)sulfonamido)azetidine-3-carboxamide] | > 10000 | 11.4 |  | < 50
